Results taken from US10647675B2 (priority 2015, dated 2020).
In brackets after ≈: the same amount, converted by molar mass.

What was measured:
[1] = tested on: Trichophyton mentagrophytes SM-110; assay: Antifungal activity evaluation test: minimum inhibitory concentration (MIC), broth dilution by reference to CLSI M38-A2; type: cell-based; settings: SM110, read-out: MIC (T. menta.)
Summary of the method: (§1)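 MIC read visually as lowest concentration inhibiting growth by at least 80% relative to control after 4 days at 35° C. Trichophyton strains inoculated at 2×10^3 cells/mL final in MOPS-buffered RPMI 1640 (pH 7.0); compounds as 2-fold DMSO series, CLSI M38-A2 basis.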

[2] = tested on: Trichophyton rubrum KD-1130; assay: as above; type: cell-based; settings: KD1130, read-out: MIC (T. rubrum)
Summary of the method: as §1

Structure (SMILES) | MIC [1] [µg/mL] | MIC [2] [µg/mL]
Cc1ccncc1-c1cccnc1Oc1ccc(C(C)(F)F)cc1F [I-303, 2-[4-(1,1-difluoroethyl)-2-fluorophenoxy]-4′-methyl-3,3′-bipyridine] | ≤ 0.1 | ≤ 0.1
COc1c(Cl)cncc1-c1cccnc1Oc1ccc(C(F)(F)F)cc1 [I-211, 5′-chloro-4′-methoxy-2-[4-(trifluoromethyl)phenoxy]-3,3′-bipyridine] | ≤ 0.1 | ≤ 0.1
COc1ncccc1-c1cccnc1Oc1ccc(CCOC(C)=O)cc1 [I-397, 4-{[(2′-methoxy)-(3,3′-bipyridin)-2-yl]oxy}phenethyl acetate] | ≤ 0.1 | ≤ 0.1
COCC(F)(F)c1ccc(Oc2ncccc2-c2ccccc2OC)cn1 [I-145, 2-{[6-(1,1-difluoro-2-methoxyethyl)pyridin-3-yl]oxy}-3-(2-methoxyphenyl)pyridine] | ≤ 0.1 | ≤ 0.1
COc1cc(F)ccc1-c1cccnc1Oc1ccc(C(F)(F)Cn2cccn2)nc1 [I-157, 2-{(6-[1,1-difluoro-2-(1H-pyrazol-1-yl)ethyl]pyridin-3-yl)oxy}-3-(4-fluoro-2-methoxyphenyl)pyridine] | ≤ 0.1 | ≤ 0.1
FC(F)(F)c1ccc(Oc2ncccc2-c2cnn3ccccc23)cn1 [I-49, 3-(2-{[6-(trifluoromethyl)pyridin-3-yl]oxy}pyridin-3-yl)-pyrazolo[1,5-a]pryidine] | 1.56 to 6.25 (≈ 4.38 to 17.5 µM) | 1.56 to 6.25 (≈ 4.38 to 17.5 µM)
COc1ccccc1-c1cccnc1Oc1ccc(C(F)(F)Cn2ccnc2)nc1 [I-351, 2-({6-[1,1-difluoro-2-(1H-imidazol-1-yl)ethyl]pyridin-3-yl}oxy)-3-(2-methoxyphenyl)pyridine] | 0.2 to 0.78 (≈ 0.49 to 1.91 µM) | 0.2 to 0.78 (≈ 0.49 to 1.91 µM)
CCCN(C)c1ncc(Oc2ncccc2-c2ccccc2OC)cn1 [I-182, 5-{[3-(2-methoxyphenyl)pyridin-2-yl]oxy}-N-methyl-N-propylpyrimidin-2-amine] | ≤ 0.1 | ≤ 0.1
CCc1ccc(Oc2ncccc2-c2cncc(C=O)c2OC)cc1 [I-287, 2′-(4-ethylphenoxy)-4-methoxy-(3,3′-bipyridine)-5-carbaldehyde] | 0.2 to 0.78 (≈ 0.598 to 2.33 µM) | 0.2 to 0.78 (≈ 0.598 to 2.33 µM)
COC(=O)CN(C)c1ncc(Oc2ncccc2-c2cccnc2OC)cn1 [I-354, methyl 2-[(5-{[2′-methoxy-(3,3′-bipyridin)-2-yl]oxy}-pyrimidin-2-yl)(methyl)amino]acetate] | ≤ 0.1 | 0.2 to 0.78 (≈ 0.524 to 2.05 µM)
COc1ccc(F)cc1-c1cncnc1Oc1ccc(C(C)(F)F)nc1 [I-360, 4-{[6-(1,1-difluoroethyl)pyridin-3-yl]oxy}-5-(5-fluoro-2-methoxyphenyl)pyrimidine] | ≤ 0.1 | ≤ 0.1
COC(=O)CCc1ccc(Oc2ncccc2-c2cccnc2OC)cc1 [I-409] | ≤ 0.1 | ≤ 0.1
COc1ccccc1-c1cncnc1Oc1ccc(Cl)cc1 [I-319, 4-(4-chlorophenoxy)-5-(2-methoxyphenyl)pyrimidine] | ≤ 0.1 | ≤ 0.1
COc1ccc(-c2cccnc2Oc2cnc(C(F)F)c(C)c2)c(OC)n1 [I-123, 2′-{[6-(difluoromethyl)-5-methylpyridin-3-yl]oxy}-2,6-dimethoxy-3,3′-bipyridine] | ≤ 0.1 | ≤ 0.1
COc1ccccc1-c1cccnc1Oc1cnc2c(c1)CCC=C2 [I-144, 3-{[3-(2-methoxyphenyl)pyridin-2-yl]oxy}-5,6-dihydroquinoline] | ≤ 0.1 | ≤ 0.1
FC(F)(F)c1ccc(Oc2ncccc2-c2cccc3ccnn23)cc1 [I-228, 7-{2-[4-(trifluoromethyl)phenoxy]pyridin-3-yl}pyrazolo[1,5-a]pyridine] | ≤ 0.1 | ≤ 0.1
COc1ccccc1-c1cccnc1Oc1ccc(C(F)F)nc1 [I-72, 2-{[6-(difluoromethyl)pyridin-3-yl]oxy}(2-methoxyphenyl)pyridine] | 0.2 to 0.78 (≈ 0.609 to 2.38 µM) | 0.2 to 0.78 (≈ 0.609 to 2.38 µM)
CCOC(=O)c1ccc(Oc2ncccc2-c2cnccc2CC)cc1 [I-416] | ≤ 0.1 | ≤ 0.1
COc1ccccc1-c1cccnc1Oc1ccc(C(F)(F)CO)nc1 [I-79, 2,2-difluoro-2-(5-{[3-(2-methoxyphenyl)pyridin-2-yl]oxy}pyridin-2-yl)ethanol] | 0.2 to 0.78 (≈ 0.558 to 2.18 µM) | 1.56 to 6.25 (≈ 4.35 to 17.4 µM)
COc1ncncc1-c1cccnc1Oc1ccc2c(c1)CCCC2 [I-271, 4′-methoxy-5-{2-[(5,6,7,8-tetrahydronaphthalen-2-yl)oxy]pyridin-3-yl}pyrimidine] | ≤ 0.1 | ≤ 0.1
COc1ncncc1-c1cccnc1Oc1ccc(C(F)(F)F)cc1 [I-219, 4-methoxy-5-{2-[4-(trifluoromethyl)phenoxy]pyridin-3-yl}pyrimidine] | ≤ 0.1 | ≤ 0.1
CC(F)(F)c1ccc(Oc2ncccc2-c2ccccc2C(F)F)cn1 [I-86, 2-{[6-(1,1-difluoroethyl)pyridin-3-yl]oxy}-3-[2-(difluoromethyl)phenyl]pyridine] | 0.2 to 0.78 (≈ 0.552 to 2.15 µM) | 0.2 to 0.78 (≈ 0.552 to 2.15 µM)
FC(F)(F)c1ccc(Oc2ncccc2-c2cccc3cccnc23)cn1 [I-34, 8-(2-{[6-(trifluoromethyl)pyridin-3-yl]oxy}pyridin-3-yl)quinoline] | ≤ 0.1 | ≤ 0.1

Structure (SMILES) | MIC [1] [µg/mL] | MIC [2] [µg/mL]
COc1c(F)cncc1-c1cccnc1Oc1ccc(C(C)(F)F)cc1 [I-301, 2-[4-(1,1-difluoroethyl)-phenoxy]-5′-fluoro-4′-methoxy-3,3′-bipyridine] | ≤ 0.1 | ≤ 0.1
COc1ncccc1-c1cccnc1Oc1ccc(C(F)(F)F)cc1 [I-202, 2-methoxy-2′-[4-(trifluoromethyl)phenoxy]-3,3′-bipyridine] | ≤ 0.1 | ≤ 0.1
COc1ccncc1-c1cccnc1Oc1ccc2c(c1)CCCC2 [I-267, 4′-methoxy-[(5,6,7,8-tetrahydronaphthalen-2-yl)oxy]-3,3′-bipyridine] | ≤ 0.1 | ≤ 0.1
COc1ncc(C)cc1-c1cccnc1Oc1ccc(C(F)(F)F)nc1 [I-30, 2-methoxy-5-methyl-2′-{[6-(trifluoromethyl)pyridin-3-yl]oxy}-3,3′-bipyridine] | ≤ 0.1 | ≤ 0.1
COc1ccccc1-c1cccnc1Oc1cnc2c(c1)CCCC2(F)F [I-142, 8,8-difluoro-3-{[3-(2-methoxyphenyl)pyridin-2-yl]oxy}-5,6,7,8-tetrahydroquinoline] | ≤ 0.1 | ≤ 0.1
CCOCCc1ccc(Oc2ncccc2-c2cccnc2OC)cc1 [I-396, 2-[4-(2-ethoxyethyl)phenoxy]2′-methoxy-3,3′-bipyridine] | ≤ 0.1 | ≤ 0.1
COCC(F)(F)c1ccc(Oc2ncccc2-c2cccc3nccnc23)cn1 [I-168, 5-(2-{[6-(1,1-difluoro-2-methoxyethyl)pyridin-3-yl]oxy}pyridin-3-yl)quinoxaline] | 0.2 to 0.78 (≈ 0.507 to 1.98 µM) | 0.2 to 0.78 (≈ 0.507 to 1.98 µM)
C#CCOCC(F)(F)c1ccc(Oc2ncccc2-c2ccccc2OC)cn1 [I-160, 2-({6-[1,1-difluoro-2-(2-propyl-1-yloxy)ethyl]pyridin-3-yl}oxy)-3-(2-methoxyphenyl)pyridine] | ≤ 0.1 | ≤ 0.1
COc1ncccc1-c1cccnc1Oc1ccc(CCc2cc(C)no2)cc1 [I-408, 5-(4-{[2′-methoxy-(3,3′-bipyridin)-2-yl]oxy}phenethyl)-3-methylisoxazole] | ≤ 0.1 | ≤ 0.1
COc1ccccc1-c1c(C)ccnc1Oc1ccc(C(F)(F)F)nc1 [I-65, 3-(2-methoxyphenyl)-4-methyl-2-{[6-(trifluoromethyl)pyridin-3-yl]oxy}pyridine] | 0.2 to 0.78 (≈ 0.555 to 2.16 µM) | ≤ 0.1
Cc1nn(C)c(Cl)c1-c1cccnc1Oc1ccc(C(F)(F)F)cc1 [I-220, 3-(5-chloro-1,3-dimethyl-1H-pyrazol-4-yl)-2-[4-(trifluoromethyl)phenoxy]pyridine] | ≤ 0.1 | ≤ 0.1
COc1ccccc1-c1cccnc1Oc1cnc(Cl)nc1 [I-338, 2-chloro-5-{[3-(2-methoxyphenyl)pyridin-2-yl]oxy}pyrimidine] | 0.2 to 0.78 (≈ 0.637 to 2.49 µM) | 0.2 to 0.78 (≈ 0.637 to 2.49 µM)
C#Cc1ccc(Oc2ncccc2-c2cnccc2OC)cc1 [I-260, 2-(4-ethynylphenoxy)-4′-methoxy-3,3′-bipyridine] | 0.2 to 0.78 (≈ 0.662 to 2.58 µM) | ≤ 0.1
COc1c(F)cncc1-c1cccnc1Oc1ccc(C(F)F)cc1 [I-356, 2-[4-(difluoromethyl)phenoxy]-5′-fluoro-4′-methoxy-3,3′-bipyridine] | ≤ 0.1 | ≤ 0.1
COc1ccccc1-c1cccnc1Oc1cnc(C(F)(F)F)nc1 [I-178] | ≤ 0.1 | ≤ 0.1
FC(F)(F)c1ccc(Oc2ncccc2-c2cccc3cc[nH]c23)cn1 [I-42, 7-(2-{[6-(trifluoromethyl)pyridin-3-yl]oxy}pyridin-3-yl)-1H-indole] | 0.2 to 0.78 (≈ 0.563 to 2.2 µM) | 0.2 to 0.78 (≈ 0.563 to 2.2 µM)
COc1cccc(Cl)c1-c1cccnc1Cc1ccc(C(F)(F)F)nc1 [I-441] | ≤ 0.1 | ≤ 0.1
Cn1nccc1-c1cccnc1Oc1ccc(C(F)(F)F)cc1 [I-221, 3-(1-methyl-1H-pyrazol-5-yl)-2-[4-(trifluoromethyl)phenoxy]pyridine] | 0.2 to 0.78 (≈ 0.626 to 2.44 µM) | 0.2 to 0.78 (≈ 0.626 to 2.44 µM)
CCOC(=O)CN(C)c1ccc(Oc2ncccc2-c2ccccc2OC)cn1 [I-344, ethyl 2-[(5-{[3-(2-methoxyphenyl)pyridin-2-yl]oxy}pyridin-2-yl)(methyl)amino]acetate] | ≤ 0.1 | ≤ 0.1
CCc1ccc(Oc2ncccc2-c2ccccc2OC)cn1 [I-124, 2-[(6-ethylpyridin-3-yl)oxy]-3-(2-methoxyphenyl)pyridine] | 0.2 to 0.78 (≈ 0.653 to 2.55 µM) | 0.2 to 0.78 (≈ 0.653 to 2.55 µM)
COc1ncccc1-c1cccnc1Sc1ccc(C(F)(F)F)cc1 [I-435] | 0.2 to 0.78 (≈ 0.552 to 2.15 µM) | 0.2 to 0.78 (≈ 0.552 to 2.15 µM)
O=Cc1ccccc1-c1cccnc1Oc1ccc(C(F)(F)F)nc1 [I-63, 2-(2-{[6-(trifluoromethyl)pyridin-3-yl]oxy}pyridin-3-yl)-benzaldehyde] | 0.2 to 0.78 (≈ 0.581 to 2.27 µM) | 0.2 to 0.78 (≈ 0.581 to 2.27 µM)
